Measured values as given in US4199579A, “Carbamates of 2-haloergolines and 2-haloergolenes and process for the preparation thereof” (priority 1975, dated 1980).
≈ marks a conversion by molar mass, not a printed value. Read-outs that look alike come from different tables or passages of the source.

Assays:
Acute toxicity in mice = assay type: in vivo, mouse; conditions: mouse, in vivo
From the text: (§1) |Toxicity LD50 mice orally

mice = experiment: Acute toxicity in mice; assay type: in vivo, mouse; conditions: acute toxicity
From the text: as §1

ptosis from reserpine = experiment: Antagonism to ptosis from reserpine; assay type: in vivo; conditions: po, read-out: Antagonism to ptosis from reserpine ED100
Anorexia = experiment: Anorexia; assay type: in vivo; conditions: po; orally
Anti-Parkinson activity = experiment: Anti-Parkinson activity; assay type: in vivo; conditions: po; orally
asthma [1] = experiment: Anti-asthmatic activity (Goose, Immunology, 16, 749, 1969); assay type: in vivo
From the text: (§2) Coming now to examining the anti-asthmatic pharmaceutical compositions it has been ascertained that the compound described as D-2-bromo-6-methyl-8beta-(morpholinocarbolynoxymethyl)-ergoline, corresponding to the formula (4) is endowed with quite special [drawing 81] which render it particularly recommendable for the therapy of asthma. The compound of the formula (4) has the empirical formula C21 H26 N3 O3 Br and a mol. wt. of 448.38. It gives, with mineral and organic acid of nontoxic and pharmacologically acceptable nature, a number of salt. These are soluble in water as well as in the physiological solutions. Such are for example the maleate C25 H30 N3 O7 Br, m.p. 213° C.-216° C., or the methanesulfonate C22 H30 N3 O6 BrS, m.p. 265° C.-266° C. and can be prepared according to the conventional methods by treating the compound (4) with the equivalent quantities of the acid in an aqueous medium or in appropriate organic solvents and their mixtures such as the alcohols, the ethers, the lower aliphatic ketones and others, taken individually or in appropriate mixtures with each other as will be detailed in the Examples hereinafter. The pharmacological activity of the compound of formula (4) is unfolded in appropriate assays, carried out on the test animals and is especially conspicuous in the following test runs:
Goose, Sodium ED100 5 mg/kg intrav.

asthma [2] = conditions: pharmacological aspect; cited from earlier work
[3] = test system: alpha-adrenergic receptors; experiment: Antiadrenalic (antiadrenergic) activity in vitro (a): antagonism of the spasmogenic effect of adrenaline on the seminal vesicle; assay type: cell-based, guinea pig
From the text: More particularly the novel compounds display a vasodilatory activity on the peripheral circulatory system, an hypotensive activity and a spasmolytic effect on the gastrointestinal smooth muscles or a blocking activity towards the alpha-adrenergic receptors, both in "vitro" and in "vivo".
(a) J. Brugger, Helv. Physiol. Pharmacol. Acta 3, 117 (1945)
The product is antagonizing the spasmogenic effect of the adrenaline on the seminal vesicle of guinea pig at concentrations of between 0.1 and 10 pg/ml, as well as the vaso- constricting effect of the noradrenaline on the isolated and perfused caudal arteria of rat, at dosages of between 1 and 10 μg total. Furthermore it antagonizes the contracturing effect of adrenaline and noradrenaline on the "vas deferens" of guinea pig and rat, at concentrations of 0.1 to 10 ng/ml.

[4] = test system: alpha-adrenergic receptors; experiment: Antiadrenalic activity in vivo (b): protection of rats from the lethal effect of adrenaline; set-up: species or system rat; conditions: for Antiadrenalic activity (b) vivo ED50: Table 2; for ED50 protecting rats from the lethal effect of adrenaline / activity higher than that of nicergoline: rat
[5] = test system: alpha-adrenergic receptors; experiment: Protection of mice from the lethal effect of adrenaline; assay type: in vivo; conditions: mouse
[6] = test system: isolated ileum of guinea pig; experiment: AntiBaCl2 activity in vitro (c): antagonism of the spasmogenic action of barium chloride on the isolated ileum; assay type: cell-based; conditions: Cavia porcellus, read-out: AntiBaCl2 (c) vitro EC50
Experimental: (c) Magnus, Pflugers Arch.Ges.Physiol. 102, 123 (1904)
The substance antagonizes the spasmogenic action of the barium chloride on the isolated ileum of guinea pig at dosages of between 1 and 5 μg/ml. […] On the isolated caudal arteria of rat, the compound II inhibits the vaso-constricting effect as caused by the perfusion with hyperpotassium Ringer's solution.

anaesthetized cat = experiment: Arterial pressure in the anaesthetized cat; assay type: in vivo; conditions: Felis catus, iv, e.v., read-out: dosage from which arterial pressure is reduced
Experimental: (§3) In the anaesthetized cat and rat, the compound causes the arterial pressure to be reduced, starting from dosages of 50 and 30 μg/kg e.v. respectively. In the "pithed" rat the compound, when intravenously administered, antagonizes the hypertensive effect of the adrenaline (ED-50 46 mg/kg).

anaesthetized rat = experiment: Arterial pressure in the anaesthetized rat; assay type: in vivo; conditions: iv, e.v., read-out: dosage from which arterial pressure is reduced
Experimental: as §3

"pithed" rat = experiment: Antagonism of the hypertensive effect of adrenaline in the pithed rat; assay type: in vivo; conditions: iv, intravenously, read-out: ED-50 antagonizing the hypertensive effect of adrenaline
Experimental: as §3

acetylcholine = experiment: Anti-acetylcholinic activity in vitro; assay type: cell-based; conditions: ratio to alpha-blocking concentration
histamine = experiment: Anti-histaminic activity in vitro; assay type: cell-based; conditions: ratio to alpha-blocking concentration
serotonin = experiment: Anti-serotoninic activity in vitro; assay type: cell-based; conditions: ratio to alpha-blocking concentration
Beagle dogs = experiment: 7-month oral administration to Beagle dogs; assay type: in vivo, dog; conditions: 7 months, about 8 mg/kg per oral route
[7] = test system: central nervous system (CNS); experiment: CNS behaviour tests (swimming of the rat, reserpine ptosis, tetrabenazine catatonia, motility and exploration, behaviour); assay type: in vivo, rat; mouse; rabbit; dog
From the text: The compound belongs to the class of the ergolene derivatives in which substances are found which cause stimulating effects on the central nervous system (CNS); several behaviour tests have been carried out on animals, in order to assess a possible exciting and hallucinogen action.

Antidepressant activity = experiment: Antidepressant activity; assay type: in vivo
From the text: as §2, with “runs: […]” for “runs:”

Myorelaxing activity = experiment: Myorelaxing activity; assay type: in vivo
From the text: as §2, with “runs: […]” for “runs:”

adrenergic activity = experiment: Adrenergic activity of compound (4) in vitro; assay type: cell-based
From the text: All of these activities of an accessorial nature which unfold themselves at dosages which are considerably higher than those which cause the antiasthmatic effect, should be regarded as favorable factors in the sense that they improve the pharmacological pattern of the product, so that a possible therapeutic use of the product for patients suffering from asthma, […], can be forecast.

[8] = iv, e.v., Table 2, read-out: DL50 e.v. in the mouse

CN1C[C@H](COC(=O)N2CCCCCC2)C[C@@H]2c3cccc4c3c(c(Br)n4C)C[C@H]21 [Example 14, D-2-bromo-1,6-dimethyl-8beta-(perhydroazepinylcarbonyloxymethyl) ergoline]
LD50 (Acute toxicity in mice; iv, mice, intravenously, compound (3), read-out: Toxicity LD50 mice, intravenously): 65 to 83 mg/kg
LD50 (Acute toxicity in mice; po, mice, orally, compound (3), read-out: Toxicity LD50 mice, orally): 600 mg/kg
acute toxicity in words (mice): well tolerated and poorly toxic
ED100 (ptosis from reserpine): 0.01 mg/kg
ED100 (Anorexia): 5 mg/kg
ED100 (Anti-Parkinson activity): 20 mg/kg

O=C(O)c1cc(=O)c2c(OCC(O)COc3cccc4oc(C(=O)O)cc(=O)c34)cccc2o1 [Sodium chromoglycate, reference compound]
ED100 (asthma [1]; iv, intrav.): 5 mg/kg
route by which the anti-asthmatic activity is manifested (asthma [2]): manifested only by the parentheral administration (intravenously), and, in man by inhalation of the dispersed powder

CN1C[C@H](COC(=O)N2CCCCCC2)C[C@@H]2c3cccc4[nH]c(Br)c(c34)C[C@H]21 [Example 2, D-2-bromo-6-methyl-8beta-(perhydroazepinylcarbonyloxymethyl)-ergoline]
Antiadrenalic activity (a) vitro EC50 [3]: 0.0017 ng/mL
Antiadrenalic activity (b) vivo ED50 ([4]; e.v.): 0.008 mg/kg
ED50 protecting rats from the lethal effect of adrenaline ([4]; e.v.): 0.008 mg/kg
activity higher than that of nicergoline ([4]; intravenously): 2.5 times
activity higher than that of nicergoline ([4]; orally): 24 times
ED50 protecting rats from the lethal effect of adrenaline ([4]; per os): 0.37 mg/kg
ED50 protecting mice from the lethal effect of adrenaline ([5]; e.v.): 0.051 mg/kg
ED50 protecting mice from the lethal effect of adrenaline ([5]; per os): 0.61 mg/kg
EC50 [6]: 3.1 µg/mL (≈ 6.73 µM)
LD50 (Acute toxicity in mice; [8]): 39.4 mg/kg
minimal effective dose (anaesthetized cat): ≥ 0.05 mg/kg
minimal effective dose (anaesthetized rat): ≥ 0.03 mg/kg
ED50 ("pithed" rat): 0.046 mg/kg
anti-acetylcholinic activity: concentration higher than that showing the alpha-blocking effect (acetylcholine): 4500 times
anti-histaminic activity: concentration higher than that showing the alpha-blocking effect (histamine): 800 times
anti-serotoninic activity: concentration higher than that showing the alpha-blocking effect (serotonin): 200 times
macroscopic or microscopic alterations of the main organs (Beagle dogs): did not cause macroscopic or microscopic alterations
modifications of the weight, hematological and hematochemical parameters (Beagle dogs): did not cause modifications
ECG modifications ([7]; in vivo): ECG modifications of sedative type were always detected
exciting property in behaviour tests ([7]; rat, mice, rabbit, dog): no evidence were found of any exciting property

CN1C[C@H](COC(=O)N2CCOCC2)C[C@@H]2c3cccc4[nH]c(Br)c(c34)C[C@H]21 [Example 16, D-2-bromo-6-methyl-8beta-(morpholinocarbonyloxymethyl)-ergoline]
Antiadrenalic activity (a) vitro EC50 [3]: 5.8 ng/mL
Antiadrenalic activity (b) vivo ED50 ([4]; e.v.): 0.0419 mg/kg
EC50 [6]: 7.5 µg/mL (≈ 16.7 µM)
LD50 (Acute toxicity in mice; [8]): 20.5 mg/kg
LD50 (Acute toxicity in mice; iv, mice, intrav., compound (4), read-out: Toxicity LD50 mice intrav.): 18 to 22 mg/kg
LD50 (Acute toxicity in mice; po, mice, orally, compound (4), read-out: Toxicity LD50 mice orally): 180 mg/kg
selectivity ratio (Acute toxicity in mice; margin of safety, read-out: multiple of the therapeutic dosage beyond which toxic effects become apparent): > 1000
dosage level of anti-asthmatic action compared with sodium chromoglycate (asthma [1]; by the oral route): considerably lower dosage levels
activity against asthmatic seizures in words (asthma [1]; in vivo): both selectivity and a powerful activity against asthmatic seizures
ED100 (asthma [1]; po, orally): 0.25 mg/kg
ED100 (Antidepressant activity; po, orally): 5 mg/kg
antidepressant activity in words (Antidepressant activity; versus imipramine): considerable antidepressant activity which can be compared to that of imipramine
ED100 (Myorelaxing activity; route not given): 100 mg/kg
myorelaxing activity in words (Myorelaxing activity; versus phenobarbital): remarkable myorelaxing activity which is comparable to that of phenobarbital
adrenergic activity in vitro (adrenergic activity): powerful adrenergic activity
